# Source: US11926841B2, “AAV-based conditional expression system” (priority 2016, dated 2024)
# Tests used:
# Assay type in all cases: cell-based
# [1] = tested on: wild type ACV sensitive HSV-1 laboratory strain; test: AAV replicon based ACV resistance test in LE2D8 cells (GLuc luciferase readout), sensitive HSV-1; conditions: ACV 6-12 μg/mi, MOI 0.035, 48 hpi
# Description: The cell line LE2D8 was seeded onto 96-well-plates at density of 3.3×10^4 cell/well. Two hours after seeding the cells were left untreated or were treated with different concentrations of ACV (CAS: 59277-89-3) (ranging from 0.05 to 144 μg/ml). Right after treatment the cells were infected with either a wild type ACV sensitive HSV-1 laboratory strain or an ACV resistant strain (kindly provided from Dr. Gundula Jäger, Max von Pettenkofer-Institute, LMU Munich) using an MOI of 0.035. After only 48 hpi luciferase activity in 20 μl of the supernatant was measured as the previous experiments. The luciferase activities of the ACV treated cells were compared to the luciferase activities obtained after infection of the non-treated cells. The luciferase induction of the non-treated cells was set 100% and the activity of the ACV treated cells was depicted as % of the non-treated values (FIG. 5A).
# [2] = tested on: ACV sensitive HSV-1 laboratory strain; test: Endpoint dilution assay (TCID50) of supernatants of ACV treated infected LE2D8 cells, sensitive HSV-1; conditions: ACV 1, 6, 12, 48 and 96 μg/ml; counts at day 7
# From the text: (§1) For the validation of the new established replicon based assay we made an endpoint-dilution-assay to monitor the amount of the produced viruses in presence of the ACV treatment. This standardised assay for detection of viral growth is very sensitive but very time consuming since 5-7 days are required to obtain the results. To test the virus production in our assay condition with the standard method the sensitive and ACV-resistant HSV-1 containing assay supernatants of the infected LE2D8 cells treated with different concentrations of ACV (n.t., 1, 6, 12, 48 and 96 μg/ml) were collected. Subsequently endpoint dilution assays were performed using HEK-cells in a 96 well plate format. The Tissue Culture Infection Dose 50 (TCID50) was calculated after collecting the infectivity counts at day 7 (FIG. 5B).
# ACV-resistant HSV-1 = test: Endpoint dilution assay (TCID50) of supernatants of ACV treated infected LE2D8 cells, resistant HSV-1; conditions: ACV 1, 6, 12, 48 and 96 μg/ml; counts at day 7
# From the text: as §1
# [3] = tested on: ACV sensitive HSV-2 isolate; test: AAV replicon based resistance test with clinical HSV-2 isolates, sensitive isolate; conditions: ACV 20 μM and higher; LE2D8 cells; 48 hpi
# Description: (§2) For testing the single HSV-2 virus isolates, LE2D8 were seeded to 3.3×10^4 cells in a 96 well format, 2 hours before treatment with 0.8, 4, 20, 100 and 500 μM ACV and infection with 1:10 diluted HSV-2 isolates, always using technical triplicates. After 48 hpi, GLuc activity in the supernatant was measured by luminometry and values were compared to non-treated and mock infected cells as above. In FIGS. 6A and 6B we show example of the replicon response induced by an ACV sensitive HSV2- and one of an ACV resistant HSV-2 isolate.
# [4] = tested on: ACV resistant HSV-2 isolate; test: AAV replicon based resistance test with clinical HSV-2 isolates, resistant isolate; conditions: ACV 0.8, 4, 20, 100 and 500 μM; LE2D8 cells; 48 hpi
# Description: as §2
structure (smiles),measurement,setting,value
"Nc1nc2c(ncn2COCCO)c(=O)[nH]1 [ACV, Aciclovir]","luciferase activity, % of non-treated cells",[1],20%
same,"virus replication under ACV treatment (TCID50, endpoint dilution)",[2],indeed inhibited by ACV treatment
same,"virus replication under ACV treatment (TCID50, endpoint dilution)",ACV-resistant HSV-1,could not inhibit the replication
same,GLuc activity compared to non-treated cells,[3],decreasing amounts of GLuc activity
same,"GLuc induction, % of the non-treated values",[4],≥ 50%
